The record followed here is patent publication US6582662B1, “Devices and methods for the performance of miniaturized homogeneous assays” (Tecan Trading AG, priority 1999, dated 2003).

This assay deals with alkaline phosphatase. Briefly: Enzyme inhibition assay on microfluidic disc (alkaline phosphatase / PNPP, reflectance at 430 nm). In kind it is biochemical. The conditions noted are these: end-point measurement 2 minutes after fluid pumped into detection chambers; dose-response fitted to Langmuir isotherm; substrate PNPP 0.5 mM; alkaline phosphatase 1 mg/mL; 0.1M glycine, 0.5 mM MgCl2; read-out: inhibition constant. The protocol:
The platform shown in FIGS. 1 through 6 was used to perform 96 simultaneous enzyme inhibition assays as model homogeneous assays. In an enzyme inhibition assay, the effect of a compound present in a first fluid (“A”) upon the capacity of an enzyme present in a second fluid (fluid “B”) to catalyze a reaction, typically of a substrate in a third fluid (“C”) is determined. The reaction was chosen to give a change in a readily-measured parameter of the fluid, such as its optical density, or to produce a fluorescent moiety. When no inhibitor was present in fluid A, mixing solution A with enzyme solution B had no effect: enzyme activity detected in this assay was the maximum detected and provided the largest change in the measured parameter. However, if an inhibitor was present in fluid A, mixing fluid A with fluid B resulted, after a sufficient time in a chemical reaction or other change induced by the inhibitor in most or all of the enzyme molecules, rendering them incapable of catalyzing the desired reaction. If this solution was mixed with the substrate solution, little or no change in the measured parameter was seen.
The system chosen to model homogeneous assays consisted of theophylline as inhibitor, alkaline phosphatase as the enzyme, and p-nitrophenol phosphate (PNPP) as the substrate. […]

Take `Cn1c(=O)c2[nH]cnc2n(C)c1=O` [theophylline]: the Ki stood at 9.7 ± 0.9 mM.
